Literature values as cited in US5525347A, “Composition and methods for treating performance anxiety” (Medical University of South Carolina, priority 1995, dated 1996).
Structures can show the parent of a compound that is named as a salt.

Key:
[1] = not given; remark: listed apart in the source
social phobia = settings: case reports; 10-120 mg

CC(C)NCC(O)COc1cccc2ccccc12 (stereo not shown) [Propranolol Hydrochloride, 1-(Isopropylamino)-3-(1-napthyloxy)-2-propanol hydrochloride]
Solubility in chloroform (chloroform): slightly soluble
Solubility in ether (ether): practically insoluble
Solubility in alcohol (volume of alcohol for 1 g): 20 mL
Solubility in water (volume of water for 1 g): 20 mL
stability to heat ([1]; heat): stable to heat
stability in light ([1]; light): unstable in light
efficacy in social phobia (social phobia): suggest efficacy
